In brackets after ≈: the same amount, converted by molar mass.
Columns and labels:
[1] = tested on: Streptococcus pneumoniae (Chester, ATCC49619); test: Broth microdilution MIC assay, Streptococcus pneumoniae; type: cell-based; conditions: for MIC: Streptococcus pneumoniae, ATCC49619, read-out: Antibacterial activity, SP (Streptococcus pneumoniae), MIC class; for Antibacterial activity Streptococcus pneumoniae: MIC class score, MIC100, broth microdilution
[2] = tested on: Staphylococcus aureus MRSA (COL); test: Broth microdilution MIC assay, Staphylococcus aureus MRSA (COL); type: cell-based; conditions: MIC class score, MIC100, broth microdilution, COL strain

Compound | MIC [1] [µg/mL] | Antibacterial activity Streptococcus pneumoniae [1] | Antibacterial activity Staphylococcus aureus (MRSA) [2]
Cc1[nH]c(-c2ccc(-c3cccc(Cl)c3)s2)nc1-c1ccccc1 [compound 12] | 2 to 5 (≈ 5.7 to 14.3 µM) |  | 
Cc1nc(-c2ccc(-c3ccccc3Cl)o2)[nH]c1C [compound 86] |  | 3 (MIC100 of 2-5 μg/ml) | 
Cc1nc(-c2ccc(/C=C/c3ccccc3)o2)[nH]c1-c1ccccc1 [compound 143] |  | 3 (MIC100 of 2-5 μg/ml) | 
Cc1nc(-c2ccc(-c3ccc(Cl)cc3)o2)[nH]c1-c1ccccc1 [compound 5] | < 1 |  | 
Cc1[nH]c(-c2ccc(-c3ccc(C(C)(C)C)cc3)o2)nc1-c1ccccc1 [compound 165] |  | 2 (MIC100 of 6-10 μg/ml) | 
CCCc1nc(-c2coc(-c3ccccc3C(F)(F)F)c2)[nH]c1C [Compound 112] |  |  | 3 (MIC100 of 3-10 μg/ml)
CCCc1[nH]c(-c2ccc(-c3ccc(O)cc3C(F)(F)F)o2)nc1C [compound 110] |  |  | 3 (MIC100 of 3-10 μg/ml)
CCCc1[nH]c(-c2ccc(-c3ccc(Cl)cc3Cl)o2)nc1C [compound 109] |  |  | 2 (MIC100 of 11-20 μg/ml)
Cc1nc(-c2ccc(-c3cccc4cc[nH]c34)o2)[nH]c1-c1ccccc1 [compound 161] |  | 3 (MIC100 of 2-5 μg/ml) | 
Cc1[nH]c(-c2cc(C)n(-c3ccc4c(c3)CCC4)c2C)nc1-c1ccccc1 [compound 59] | 2 to 5 (≈ 5.44 to 13.6 µM) |  | 
CCCc1nc(-c2ccc(-c3ccccc3C)o2)[nH]c1C [compound 100] |  |  | 2 (MIC100 of 11-20 μg/ml)
Cc1nc(-c2ccc(-c3ccc4occc4c3)o2)[nH]c1-c1ccccc1 [compound 159] |  | 3 (MIC100 of 2-5 μg/ml) | 
Cc1[nH]c(-c2ccc(-c3ccccc3)s2)nc1-c1ccccc1 [compound 74] | 2 to 5 (≈ 6.32 to 15.8 µM) |  | 
CCCc1[nH]c(-c2ccc(-c3ccccc3Cl)s2)nc1C [compound 82] |  |  | 3 (MIC100 of 3-10 μg/ml)
Cc1ccc(-c2ncc(-c3nc(-c4ccccc4)c(C)[nH]3)s2)cc1 [compound 55] | 2 to 5 (≈ 6.03 to 15.1 µM) |  | 
Cc1ccc(-c2nc(-c3nc(-c4ccccc4)c(C)[nH]3)co2)cc1 [compound 57] | 2 to 5 (≈ 6.34 to 15.9 µM) | 3 (MIC100 of 2-5 μg/ml) | 
Cc1nc(-c2ccc(-c3ccc(F)cc3F)o2)[nH]c1-c1ccc(O)cc1 [compound 80] |  |  | 2 (MIC100 of 11-20 μg/ml)
CCCc1nc(-c2ccc(-c3ccc(C(F)(F)F)cc3)o2)[nH]c1C [compound 104] |  |  | 3 (MIC100 of 3-10 μg/ml)
COc1ccc(-c2ccc(-c3nc(C)c(-c4ccccc4)[nH]3)o2)c(C(F)(F)F)c1 [compound 31] | < 1 |  | 
Cc1nc(-c2ccc(-c3ccc(F)cc3)o2)[nH]c1-c1ccccc1 [compound 148] |  | 3 (MIC100 of 2-5 μg/ml) | 
Cc1nc(-c2ccc(-c3ccc(O)cc3Cl)o2)[nH]c1-c1ccccc1 [compound 158] |  | 3 (MIC100 of 2-5 μg/ml) | 

Compound | MIC [1] [µg/mL] | Antibacterial activity Streptococcus pneumoniae [1] | Antibacterial activity Staphylococcus aureus (MRSA) [2]
CCCc1nc(-c2csc(-c3ccccc3C(F)(F)F)c2)[nH]c1C [Compound 113] |  |  | 3 (MIC100 of 3-10 μg/ml)
CCc1ccc(-c2[nH]c(-c3ccc(-c4ccccc4C(F)(F)F)o3)nc2C)cc1 [compound 28] | 2 to 5 (≈ 5.05 to 12.6 µM) |  | 
FC(F)(F)Oc1ccccc1-c1ccc(-c2ncc(-c3ccccc3)[nH]2)o1 [compound 63] | 2 to 5 (≈ 5.4 to 13.5 µM) | 3 (MIC100 of 2-5 μg/ml) | 
Cc1nc(-c2ccc(-c3cc(C(F)(F)F)cc(C(F)(F)F)c3)o2)[nH]c1-c1ccccc1 [compound 35] |  | 2 (MIC100 of 6-10 μg/ml) | 
CCCc1[nH]c(-c2ccc(-c3ccccc3)o2)nc1C [compound 94] |  |  | 3 (MIC100 of 3-10 μg/ml)
Cc1nc(-c2ccc(-c3ccccc3C(F)(F)F)o2)[nH]c1-c1ccccc1Cl [compound 20] | < 1 |  | 
Cc1[nH]c(-c2ccc(-c3ccccc3OC(F)(F)F)o2)nc1-c1ccc(C(F)(F)F)cc1 [compound 26] | 2 to 5 (≈ 4.42 to 11.1 µM) |  | 
Cc1nc(-c2ccc(-c3cc(F)ccc3C(F)(F)F)o2)[nH]c1-c1ccccc1 [31a] |  | 3 (MIC100 of 2-5 μg/ml) | 
Cc1ccc(-c2ccc(-c3nc(-c4ccccc4)c(C)[nH]3)s2)cc1 [compound 54] | 6 to 10 (≈ 18.2 to 30.3 µM) | 2 (MIC100 of 6-10 μg/ml) | 
Cc1nc(-c2ccc(-c3ccc(O)c(Cl)c3)o2)[nH]c1-c1ccccc1 [compound 157] |  | 3 (MIC100 of 2-5 μg/ml) | 
Cc1[nH]c(-c2cnn(-c3ccccc3)n2)nc1-c1ccccc1 [compound 73] | 6 to 10 (≈ 19.9 to 33.2 µM) | 2 (MIC100 of 6-10 μg/ml) | 
Cc1[nH]c(-c2ccc(-c3ccccc3F)o2)nc1-c1ccccc1 [compound 162] |  | 3 (MIC100 of 2-5 μg/ml) | 
Cc1nc(-c2ccc(-c3cccc4[nH]ccc34)o2)[nH]c1-c1ccccc1 [compound 138] |  | 2 (MIC100 of 6-10 μg/ml) | 
Cc1[nH]c(-c2ccc(-c3ccc(F)cc3)s2)nc1-c1ccccc1 [compound 7] | 2 to 5 (≈ 5.98 to 15 µM) |  | 
Cc1nc(-c2ccc(-c3ccc4[nH]ccc4c3)o2)[nH]c1-c1ccccc1 [compound 144] |  | 3 (MIC100 of 2-5 μg/ml) | 
Cc1nc(-c2ccc(-c3ccc(O)cc3F)o2)[nH]c1-c1ccccc1 [compound 168] |  | 3 (MIC100 of 2-5 μg/ml) | 
Cc1nc(-c2ccc(-c3ccccc3Br)o2)[nH]c1C [compound 84] |  | 2 (MIC100 of 6-10 μg/ml) | 
Cc1[nH]c(-c2cc(C)n(-c3ccc(F)c(F)c3F)c2C)nc1-c1ccccc1 [compound 10] | 2 to 5 (≈ 5.24 to 13.1 µM) |  | 
Cc1[nH]c(-c2cc(C)n(-c3ccc(Cl)cc3)c2C)nc1-c1ccccc1 [compound 8] | 2 to 5 (≈ 5.53 to 13.8 µM) | 3 (MIC100 of 2-5 μg/ml) | 
Cc1nc(-c2ccc(-c3ccc(F)c(F)c3)o2)[nH]c1-c1ccccc1 [compound 153] |  | 3 (MIC100 of 2-5 μg/ml) | 
Cc1[nH]c(-c2ccc(-c3cccc(Br)c3)s2)nc1-c1ccccc1 [compound 13] | 2 to 5 (≈ 5.06 to 12.6 µM) |  | 

Compound | MIC [1] [µg/mL] | Antibacterial activity Streptococcus pneumoniae [1] | Antibacterial activity Staphylococcus aureus (MRSA) [2]
Cc1nc(-c2ccc(-c3cc(C(F)(F)F)ccc3Cl)o2)[nH]c1-c1ccccc1 [compound 40] | 6 to 10 (≈ 14.9 to 24.8 µM) | 2 (MIC100 of 6-10 μg/ml) | 
Cc1ccc(-c2ccc(-c3nc(-c4ccccc4)c(C)[nH]3)o2)cc1 [compound 52] | 6 to 10 (≈ 19.1 to 31.8 µM) |  | 
Cc1cccc(C)c1-c1ccc(-c2nc(C)c(-c3ccccc3)[nH]2)o1 [compound 62] | 2 to 5 (≈ 6.09 to 15.2 µM) | 3 (MIC100 of 2-5 μg/ml) | 
Cc1[nH]c(-c2ccc(-c3ccccc3C(F)(F)F)o2)nc1-c1ccc(Br)cc1 [compound 25] | 2 to 5 (≈ 4.47 to 11.2 µM) | 3 (MIC100 of 2-5 μg/ml) | 
Cc1[nH]c(-c2csc(-c3cccc(Br)c3)n2)nc1-c1ccccc1 [compound 14] | 2 to 5 (≈ 5.05 to 12.6 µM) |  | 
CCc1ccc(-c2ccc(-c3nc(-c4ccccc4)c(C)[nH]3)o2)cc1 [compound 53] | 2 to 5 (≈ 6.09 to 15.2 µM) | 3 (MIC100 of 2-5 μg/ml) | 
Cc1[nH]c(-c2cc(C)n(-c3ccc(F)cc3F)c2C)nc1-c1ccccc1 [compound 9] | 2 to 5 (≈ 5.5 to 13.8 µM) |  | 
Cc1[nH]c(-c2csc(-c3ccc(F)cc3)n2)nc1-c1ccccc1 [compound 11] | 2 to 5 (≈ 5.96 to 14.9 µM) |  | 
Cc1ccccc1-c1ccc(-c2nc(C)c(-c3ccccc3)[nH]2)o1 [compound 61] | 2 to 5 (≈ 6.36 to 15.9 µM) | 3 (MIC100 of 2-5 μg/ml) | 
Cc1nc(-c2ccc(-c3ccc4cc[nH]c4c3)o2)[nH]c1-c1ccccc1 [compound 152] |  | 3 (MIC100 of 2-5 μg/ml) | 
Cc1nc(-c2ccc(-c3ccc(O)c(C(F)(F)F)c3)o2)[nH]c1-c1ccccc1 [compound 155] |  | 3 (MIC100 of 2-5 μg/ml) | 
Cc1nc(-c2ccc(-c3cccc(F)c3)o2)[nH]c1-c1ccccc1 [compound 146] |  | 3 (MIC100 of 2-5 μg/ml) | 
Cc1[nH]c(-c2ccc(-c3c(F)cccc3F)o2)nc1-c1ccccc1 [compound 163] |  | 3 (MIC100 of 2-5 μg/ml) | 
C#Cc1ccc(-c2[nH]c(-c3ccc(-c4ccccc4C(F)(F)F)o3)nc2C)cc1 [compound 27] | < 1 |  | 
Cc1nc(-c2ccc(-c3ccccc3N(C)C)o2)[nH]c1-c1ccccc1 [compound 71] | 2 to 5 (≈ 5.82 to 14.6 µM) | 3 (MIC100 of 2-5 μg/ml) | 
Cc1cc(F)ccc1-c1ccc(-c2nc(-c3ccccc3)c(C)[nH]2)o1 [compound 164] |  | 3 (MIC100 of 2-5 μg/ml) | 
Cc1nc(-c2ccc(-c3ccc(O)cc3C(F)(F)F)o2)[nH]c1-c1ccccc1 [compound 139] |  | 3 (MIC100 of 2-5 μg/ml) | 
Cc1[nH]c(-c2cc(C)n(-c3ccc(C(C)C)cc3)c2C)nc1-c1ccccc1 [compound 58] | < 1 |  | 
Cc1[nH]c(-c2coc(-c3ccccc3C(F)(F)F)c2)nc1-c1ccccc1 [compound 72] | 6 to 10 (≈ 16.3 to 27.1 µM) |  | 
Cc1ccc(-c2nc(-c3nc(-c4ccccc4)c(C)[nH]3)cs2)cc1 [compound 56] | 2 to 5 (≈ 6.03 to 15.1 µM) |  | 

Source: patent US10456379B2, “Imidazole-based antimicrobial agents” (priority 2014, dated 2019)
